# Measurements taken from patent publication US20100267561A1, “HERBICIDAL PYRIDAZINONE DERIVATIVES” (priority 2007, published 2010).
# Tests used:
# Experiment in all cases: Test B pre-/postemergence plant response
# Assay type in all cases: in vivo
# [1] = test system: blackgrass (Alopecurus myosuroides)
# From the text: (§1) Seeds of plant species selected from blackgrass (Alopecurus myosuroides), downy bromegrass (Bromus tectorum), green foxtail (Setaria viridis), Italian ryegrass (Lolium multiflorum), wheat (Triticum aestivum), wild oat (Avena fatua), catchweed bedstraw (Galium aparine), bermudagrass (Cynodon dactylon), surinam grass (Brachiaria decumbens), cocklebur (Xanthium strumarium), corn (Zea mays), large crabgrass (Digitaria sanguinalis), woolly cupgrass (Eriochloa villosa), giant foxtail (Setaria faberii), goosegrass (Eleusine indica), johnsongrass (Sorghum halepense), kochia (Kochia scoparia), lambsquarters (Chenopodium album), morningglory (Ipomoea coccinea), eastern black (E.B.) nightshade (Solanum ptycanthum), yellow nutsedge (Cyperus esculentus), pigweed (Amaranthus retroflexus), common ragweed (Ambrosia elation), Russian thistle (Salsola iberica), soybean (Glycine max), common (oilseed) sunflower (Helianthus annuus), and velvetleaf (Abutilon theophrasti) were planted and treated preemergence with test chemicals formulated in a non-phytotoxic solvent mixture which included a surfactant.
# (§2) At the same time, plants selected from these crop and weed species and also winter barley (Hordeum vulgare), canarygrass (Phalaris minor), chickweed (Stellaria media) and windgrass (Apera spica-venti) were treated with postemergence applications of some of the test chemicals formulated in the same manner. Plants ranged in height from 2 to 18 cm (1- to 4-leaf stage) for postemergence treatments.
# (§3) Plant species in the flooded paddy test consisted of rice (Oryza sativa), umbrella sedge (Cyperus difformis), ducksalad (Heteranthera limosa) and barnyardgrass (Echinochloa crus-galli) grown to the 2-leaf stage for testing. At time of treatment, test pots were flooded to 3 cm above the soil surface, treated by application of test compounds directly to the paddy water, and then maintained at that water depth for the duration of the test. Treated plants and controls were maintained in a greenhouse for 13 to 15 days, after which time all species were compared to controls and visually evaluated. Plant response ratings, summarized in Table B, are based on a scale of 0 to 100 where 0 is no effect and 100 is complete control. A dash (-) response means no test result.
# [2] = test system: wheat (Triticum aestivum)
# From the text: as §1, §2, §3
# [3] = test system: corn (Zea mays)
# From the text: as §1, §2, §3
# [4] = test system: common (oilseed) sunflower (Helianthus annuus); conditions: Preemergence
# From the text: as §1, §2, §3
# [5] = test system: yellow nutsedge (Cyperus esculentus)
# From the text: as §1, §2, §3
# [6] = test system: cocklebur (Xanthium strumarium)
# From the text: as §1, §2, §3
# [7] = test system: wild oat (Avena fatua)
# From the text: as §1, §2, §3
# [8] = test system: downy bromegrass (Bromus tectorum)
# From the text: as §1, §2, §3
# [9] = test system: common ragweed (Ambrosia elation)
# From the text: as §1, §2, §3
# [10] = test system: eastern black (E.B.) nightshade (Solanum ptycanthum); conditions: Preemergence
# From the text: as §1, §2, §3
# [11] = test system: surinam grass (Brachiaria decumbens)
# From the text: as §1, §2, §3
# [12] = test system: green foxtail (Setaria viridis)
# From the text: as §1, §2, §3
# [13] = test system: woolly cupgrass (Eriochloa villosa)
# From the text: as §1, §2, §3
# [14] = 8 g ai/ha, postemergence, 0-100 scale
# [15] = 16 g ai/ha, postemergence, 0-100 scale
# [16] = Postemergence, 31 g ai/ha, scale 0 to 100
# [17] = Postemergence, 62 g ai/ha, scale 0 to 100, 0 no effect, 100 complete control
# [18] = Preemergence, 8 g ai/ha, scale 0 to 100 (0 no effect, 100 complete control)
# [19] = Preemergence, 31 g ai/ha, scale 0 to 100 (0 no effect, 100 complete control)
# [20] = Preemergence, 62 g ai/ha, 0 to 100 scale, 0 no effect, 100 complete control
# [21] = Preemergence, 16 g ai/ha, scale 0 to 100
# [22] = 8 g ai/ha, scale 0 to 100 (0 no effect, 100 complete control)
# [23] = 31 g ai/ha, scale 0 to 100 (0 no effect, 100 complete control)
# [24] = 62 g ai/ha, 0 to 100 scale, 0 no effect, 100 complete control
compound,measurement,setting,value
CCc1c(C)c(-c2ccc(Br)cc2)nn1-c1c(O)cnn(C)c1=O [Compound 83],Blackgrass plant response rating,[1]; [14],70
same,Blackgrass plant response rating,[1]; [15],95
same,"Plant response rating, Blackgrass",[1]; [16],95
same,"Plant response rating, Blackgrass",[1]; [17],100
same,Blackgrass plant response rating,[1]; [18],0
same,"Plant response rating, Blackgrass",[1]; [19],80
same,"Plant response rating, Blackgrass",[1]; [20],98
same,Blackgrass plant response rating,[1]; [21],30
same,Wheat plant response rating,[2]; [14],40
same,Wheat plant response rating,[2]; [15],55
same,"Plant response rating, Wheat",[2]; [16],90
same,"Plant response rating, Wheat",[2]; [17],95
same,Wheat plant response rating,[2]; [18],0
same,"Plant response rating, Wheat",[2]; [19],0
same,"Plant response rating, Wheat",[2]; [20],20
same,Wheat plant response rating,[2]; [21],0
same,Corn plant response rating,[3]; [14],65
same,Corn plant response rating,[3]; [15],95
same,"Plant response rating, Corn",[3]; [16],98
same,"Plant response rating, Corn",[3]; [17],100
same,Corn plant response rating,[3]; [18],0
same,"Plant response rating, Corn",[3]; [19],95
same,"Plant response rating, Corn",[3]; [20],95
same,Corn plant response rating,[3]; [21],45
same,Sunflower plant response rating,[4]; [22],0
same,"Plant response rating, Sunflower",[4]; [23],0
same,"Plant response rating, Sunflower",[4]; [24],0
same,Sunflower plant response rating,"[4]; 16 g ai/ha, scale 0 to 100",0
same,"Nutsedge, Yellow plant response rating",[5]; [14],0
same,"Nutsedge, Yellow plant response rating",[5]; [15],0
same,"Plant response rating, Nutsedge, Yellow",[5]; [16],0
same,"Plant response rating, Nutsedge, Yellow",[5]; [17],0
same,"Nutsedge, Yellow plant response rating",[5]; [18],0
same,"Plant response rating, Nutsedge, Yellow",[5]; [19],0
same,"Plant response rating, Nutsedge, Yellow",[5]; [20],0
same,"Nutsedge, Yellow plant response rating",[5]; [21],0
same,Cocklebur plant response rating,[6]; [14],0
same,Cocklebur plant response rating,[6]; [15],0
same,"Plant response rating, Cocklebur",[6]; [16],0
same,"Plant response rating, Cocklebur",[6]; [17],0
same,Cocklebur plant response rating,[6]; [18],0
same,"Plant response rating, Cocklebur",[6]; [19],0
same,"Plant response rating, Cocklebur",[6]; [20],0
same,Cocklebur plant response rating,[6]; [21],0
same,"Oat, Wild plant response rating",[7]; [14],98
same,"Oat, Wild plant response rating",[7]; [15],100
same,"Plant response rating, Oat, Wild",[7]; [16],100
same,"Plant response rating, Oat, Wild",[7]; [17],100
same,"Oat, Wild plant response rating",[7]; [18],0
same,"Plant response rating, Oat, Wild",[7]; [19],80
same,"Plant response rating, Oat, Wild",[7]; [20],85
same,"Oat, Wild plant response rating",[7]; [21],30
same,"Bromegrass, Downy plant response rating",[8]; [14],10
same,"Bromegrass, Downy plant response rating",[8]; [15],55
same,"Plant response rating, Bromegrass, Downy",[8]; [16],75
same,"Plant response rating, Bromegrass, Downy",[8]; [17],85
same,"Bromegrass, Downy plant response rating",[8]; [18],0
same,"Plant response rating, Bromegrass, Downy",[8]; [19],20
same,"Plant response rating, Bromegrass, Downy",[8]; [20],30
same,"Bromegrass, Downy plant response rating",[8]; [21],0
same,Ragweed plant response rating,[9]; [14],0
same,Ragweed plant response rating,[9]; [15],0
same,"Plant response rating, Ragweed",[9]; [16],0
same,"Plant response rating, Ragweed",[9]; [17],0
same,Ragweed plant response rating,[9]; [18],0
same,"Plant response rating, Ragweed",[9]; [19],0
same,"Plant response rating, Ragweed",[9]; [20],0
same,Ragweed plant response rating,[9]; [21],0
same,"Nightshade, E. B. plant response rating",[10]; [22],0
same,"Plant response rating, Nightshade, E. B.",[10]; [23],0
same,"Plant response rating, Nightshade, E. B.",[10]; [24],0
same,"Nightshade, E. B. plant response rating","[10]; 16 g ai/ha, scale 0 to 100",0
same,Surinam Grass plant response rating,[11]; [14],85
same,Surinam Grass plant response rating,[11]; [15],100
same,"Plant response rating, Surinam Grass",[11]; [16],100
same,"Plant response rating, Surinam Grass",[11]; [17],100
same,Surinam Grass plant response rating,[11]; [18],55
same,"Plant response rating, Surinam Grass",[11]; [19],98
same,"Plant response rating, Surinam Grass",[11]; [20],100
same,Surinam Grass plant response rating,[11]; [21],90
same,"Foxtail, Green plant response rating",[12]; [14],60
same,"Foxtail, Green plant response rating",[12]; [15],65
same,"Plant response rating, Foxtail, Green",[12]; [16],98
same,"Plant response rating, Foxtail, Green",[12]; [17],100
same,"Foxtail, Green plant response rating",[12]; [18],40
same,"Plant response rating, Foxtail, Green",[12]; [19],80
same,"Plant response rating, Foxtail, Green",[12]; [20],100
same,"Foxtail, Green plant response rating",[12]; [21],70
same,"Cupgrass, Woolly plant response rating",[13]; [14],65
same,"Cupgrass, Woolly plant response rating",[13]; [15],95
same,"Plant response rating, Cupgrass, Woolly",[13]; [16],98
same,"Plant response rating, Cupgrass, Woolly",[13]; [17],100
same,"Cupgrass, Woolly plant response rating",[13]; [18],65
same,"Plant response rating, Cupgrass, Woolly",[13]; [19],100
same,"Plant response rating, Cupgrass, Woolly",[13]; [20],100
same,"Cupgrass, Woolly plant response rating",[13]; [21],90
